Laboratory results: US20230117470A1, “SUBSTITUTED PYRAZOLE COMPOUNDS AS TOLL RECEPTOR INHIBITORS” (BRISTOL-MYERS SQUIBB COMPANY, priority 2019, published 2023)

Assays:
Format in all cases: cell-based
human TLR7 = target: T1, human TLR7 (Homo sapiens, UniProt Q9NYK1); assay: TLR7 inhibition reporter assay (HEK-Blue cells, SEAP reporter, gardiquimod stimulation); conditions: HEK-Blue cells overexpressing human TLR7, SEAP reporter, gardiquimod 7.5 μM
T1 construct: host or cells: HEK-Blue cells
T1 sequence (Q9NYK1 27-1049): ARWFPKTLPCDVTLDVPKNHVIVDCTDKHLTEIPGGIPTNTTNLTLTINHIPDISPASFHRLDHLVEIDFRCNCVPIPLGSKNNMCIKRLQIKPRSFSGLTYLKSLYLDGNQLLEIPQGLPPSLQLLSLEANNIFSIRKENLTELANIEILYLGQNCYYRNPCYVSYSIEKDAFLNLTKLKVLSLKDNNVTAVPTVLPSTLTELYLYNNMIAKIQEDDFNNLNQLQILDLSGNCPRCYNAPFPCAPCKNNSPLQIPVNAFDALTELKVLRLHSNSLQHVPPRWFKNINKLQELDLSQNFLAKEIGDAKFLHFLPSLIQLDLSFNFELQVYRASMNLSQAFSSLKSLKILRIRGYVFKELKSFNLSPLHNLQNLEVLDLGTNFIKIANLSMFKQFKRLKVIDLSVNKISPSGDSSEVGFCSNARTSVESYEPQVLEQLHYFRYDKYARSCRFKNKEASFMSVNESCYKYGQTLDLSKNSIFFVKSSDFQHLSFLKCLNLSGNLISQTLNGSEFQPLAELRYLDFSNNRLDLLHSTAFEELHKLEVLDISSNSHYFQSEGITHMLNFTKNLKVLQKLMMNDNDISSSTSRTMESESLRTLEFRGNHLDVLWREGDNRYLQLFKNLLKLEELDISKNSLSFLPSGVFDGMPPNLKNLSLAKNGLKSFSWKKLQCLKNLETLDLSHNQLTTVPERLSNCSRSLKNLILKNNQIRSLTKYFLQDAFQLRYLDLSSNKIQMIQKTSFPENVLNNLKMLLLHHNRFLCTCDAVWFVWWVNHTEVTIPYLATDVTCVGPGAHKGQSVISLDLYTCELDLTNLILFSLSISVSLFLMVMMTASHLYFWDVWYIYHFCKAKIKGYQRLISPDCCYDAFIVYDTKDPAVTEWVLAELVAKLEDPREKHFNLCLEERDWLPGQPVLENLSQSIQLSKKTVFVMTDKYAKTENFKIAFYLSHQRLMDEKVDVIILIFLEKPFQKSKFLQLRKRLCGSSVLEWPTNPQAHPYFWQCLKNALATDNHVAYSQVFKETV
Procedure: (§1) TLR7/8/9 Inhibition Reporter Assays
(§2) HEK-Blue™-cells (Invivogen) overexpressing human TLR7, TLR8 or TLR9 receptors were used for screening inhibitors of these receptors using an inducible SEAP (secreted embryonic alkaline phosphatase) reporter gene under the control of the IFN-β minimal promoter fused to five NF-κB and AP-1-binding sites. Briefly, cells are seeded into Greiner 384 well plates (15000 cells per well for TLR7, 20,000 for TLR8 and 25,000 for TLR9) and then treated with test compounds in DMSO to yield a final dose response concentration range of 0.05 nM-50 μM. After a 30 minute compound pre-treatment at room temperature, the cells are then stimulated with a TLR7 ligand (gardiquimod at a final concentration of 7.5 μM), TLR8 ligand (R848 at a final concentration of 15.9 μM) or TLR9 ligand (ODN2006 at a final concentration of 5 nM) to activate NF-κB and AP-1 which induce the production of SLA After a 22 hour incubation at 37° C., […], SEAP levels are determined with the addition of HEK-Blue™ Detection reagent (Invivogen), a cell culture medium that allows for detection of SLAP, according to manufacturer's specifications. The percent inhibition is determined as the % reduction in the HEK-Blue signal present in wells treated with agonist plus DMSO alone compared to wells treated with a known inhibitor.

human TLR8 = target: T2, human TLR8 (Homo sapiens, UniProt Q9NR97); assay: TLR8 inhibition reporter assay (HEK-Blue cells, SEAP reporter, R848 stimulation); conditions: HEK-Blue cells overexpressing human TLR8, SEAP reporter, R848 15.9 μM
T2 construct: host or cells: HEK-Blue cells
T2 sequence (Q9NR97 27-1041): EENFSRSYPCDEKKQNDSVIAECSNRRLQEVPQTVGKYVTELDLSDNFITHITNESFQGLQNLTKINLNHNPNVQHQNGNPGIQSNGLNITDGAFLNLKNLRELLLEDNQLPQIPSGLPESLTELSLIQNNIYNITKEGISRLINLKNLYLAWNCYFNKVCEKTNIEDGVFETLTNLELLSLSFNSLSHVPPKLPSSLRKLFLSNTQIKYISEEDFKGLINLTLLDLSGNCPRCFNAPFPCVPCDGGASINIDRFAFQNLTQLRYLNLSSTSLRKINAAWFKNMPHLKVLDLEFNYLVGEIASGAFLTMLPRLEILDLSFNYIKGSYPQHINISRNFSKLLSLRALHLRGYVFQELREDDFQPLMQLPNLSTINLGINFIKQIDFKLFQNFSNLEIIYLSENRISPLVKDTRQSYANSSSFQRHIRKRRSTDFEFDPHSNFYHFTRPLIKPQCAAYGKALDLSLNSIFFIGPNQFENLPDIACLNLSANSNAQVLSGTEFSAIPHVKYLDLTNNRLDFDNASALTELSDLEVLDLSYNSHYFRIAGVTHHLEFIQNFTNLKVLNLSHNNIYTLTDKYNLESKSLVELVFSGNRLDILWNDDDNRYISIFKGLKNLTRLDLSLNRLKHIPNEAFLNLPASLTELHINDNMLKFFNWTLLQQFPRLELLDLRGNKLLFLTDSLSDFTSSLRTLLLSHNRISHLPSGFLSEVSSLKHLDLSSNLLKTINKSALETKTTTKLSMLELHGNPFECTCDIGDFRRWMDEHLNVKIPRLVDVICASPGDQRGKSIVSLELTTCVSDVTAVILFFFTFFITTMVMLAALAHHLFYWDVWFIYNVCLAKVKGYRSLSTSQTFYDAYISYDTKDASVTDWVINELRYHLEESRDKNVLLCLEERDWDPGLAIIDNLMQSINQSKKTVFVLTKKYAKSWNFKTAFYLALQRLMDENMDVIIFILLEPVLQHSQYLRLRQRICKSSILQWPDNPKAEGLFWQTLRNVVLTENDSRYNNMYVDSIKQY
Procedure: as §1, §2

human TLR9 = target: T3, human TLR9 (Homo sapiens, UniProt Q9NR96); assay: TLR9 inhibition reporter assay (HEK-Blue cells, SEAP reporter, ODN2006 stimulation); conditions: HEK-Blue cells overexpressing human TLR9, SEAP reporter, ODN2006 5 nM
T3 construct: host or cells: HEK-Blue cells
T3 sequence (Q9NR96 26-1032): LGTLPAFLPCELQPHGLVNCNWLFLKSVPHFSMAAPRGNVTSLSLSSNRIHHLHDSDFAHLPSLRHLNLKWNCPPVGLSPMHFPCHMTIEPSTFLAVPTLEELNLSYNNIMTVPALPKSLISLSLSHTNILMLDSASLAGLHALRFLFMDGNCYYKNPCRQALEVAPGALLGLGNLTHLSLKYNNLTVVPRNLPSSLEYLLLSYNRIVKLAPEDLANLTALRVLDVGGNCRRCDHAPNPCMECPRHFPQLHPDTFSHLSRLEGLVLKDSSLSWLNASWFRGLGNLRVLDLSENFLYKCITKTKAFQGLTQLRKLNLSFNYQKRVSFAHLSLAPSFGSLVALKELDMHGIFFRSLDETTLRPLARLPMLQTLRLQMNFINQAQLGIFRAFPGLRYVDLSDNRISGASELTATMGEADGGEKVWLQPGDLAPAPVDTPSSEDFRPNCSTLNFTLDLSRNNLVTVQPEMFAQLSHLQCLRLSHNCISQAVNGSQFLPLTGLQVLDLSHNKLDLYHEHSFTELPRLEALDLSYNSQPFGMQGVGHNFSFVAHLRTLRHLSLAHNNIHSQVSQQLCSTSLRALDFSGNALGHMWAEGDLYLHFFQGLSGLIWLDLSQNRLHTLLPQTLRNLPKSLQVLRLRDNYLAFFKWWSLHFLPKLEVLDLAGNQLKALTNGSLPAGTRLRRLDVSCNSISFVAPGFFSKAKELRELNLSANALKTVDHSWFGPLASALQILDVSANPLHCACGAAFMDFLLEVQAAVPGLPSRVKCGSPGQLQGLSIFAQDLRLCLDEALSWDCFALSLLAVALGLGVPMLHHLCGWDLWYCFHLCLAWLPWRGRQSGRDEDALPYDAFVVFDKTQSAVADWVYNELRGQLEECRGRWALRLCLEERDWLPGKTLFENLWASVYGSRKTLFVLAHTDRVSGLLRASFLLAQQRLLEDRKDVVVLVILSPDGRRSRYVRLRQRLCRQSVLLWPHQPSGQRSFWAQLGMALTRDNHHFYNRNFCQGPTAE
Procedure: as §1, §2

Row | Structure (SMILES) | IC50 (human TLR7) | IC50 (human TLR8) | IC50 (human TLR9)
1 | Cc1cc(-c2[nH]nc(C(=O)N(C)CCC#N)c2C(C)C)cn2ncnc12 [Example 16] | 3.09 nM | 2.74 nM | 43500 nM
2 | Cc1cc(-c2[nH]nc(C(=O)N(C)Cc3cccnc3)c2C(C)C)cn2ncnc12 [Example 17] | 8.08 nM | 8.27 nM | 3430 nM
3 | Cc1cc(-c2[nH]nc(C(=O)N3CC[C@@H](N(C)C)C3)c2C(C)C)cn2ncnc12 [Example 18] | 5.69 nM | 2.57 nM | 3740 nM
4 | Cc1cc(-c2[nH]nc(C(=O)N3CCN(CCC#N)CC3)c2C(C)C)cn2ncnc12 [Example 19] | 1.4 nM | 12 nM | 5940 nM
5 | CCN(CCC#N)C(=O)c1n[nH]c(-c2cc(C)c3ncnn3c2)c1C(C)C [Example 20] | 3.69 nM | 8.06 nM | 16100 nM
6 | Cc1cc(-c2[nH]nc(C(=O)N3CC(N(C)C)C3)c2C(C)C)cn2ncnc12 [Example 21] | 6.89 nM | 39 nM | > 50000 nM
7 | Cc1cc(-c2[nH]nc(C(=O)N3CC[C@H](N(C)C)C3)c2C(C)C)cn2ncnc12 [Example 22] | 1.23 nM | 0.9 nM | 4850 nM
8 | Cc1cc(-c2[nH]nc(C(=O)N3CCCN(C)CC3)c2C(C)C)cn2ncnc12 [Example 23] | 1.27 nM | 1.01 nM | 4770 nM
9 | Cc1cc(-c2[nH]nc(C(=O)N(C)CCCN(C)C)c2C(C)C)cn2ncnc12 [Example 24] | 43.4 nM | 12.5 nM | 793 nM
10 | Cc1cc(-c2[nH]nc(C(=O)N(C)C3CCN(C)C3)c2C(C)C)cn2ncnc12 (stereo not drawn) [Example 25] | 25.6 nM | 10.3 nM | 447 nM
11 | COc1cc(-c2[nH]nc(C(=O)NCC(C)(C)N3CCOCC3)c2C(C)C)cn2ncnc12 [Example 26] | 442 nM | 413 nM | 7210 nM
12 | CNC(=O)c1n[nH]c(-c2cc(C)c3ncnn3c2)c1C(C)C [Example 27] | 29.7 nM | 2.87 nM | 388 nM
13 | Cc1cc(-c2[nH]nc(C(=O)NC3CCOCC3)c2C(C)C)cn2ncnc12 [Example 28] | 39 nM | 265 nM | 645 nM
14 | Cc1cc(-c2[nH]nc(C(N)=O)c2C(C)C)cn2ncnc12 [Example 29] | 18.4 nM | 1.91 nM | 216 nM
15 | Cc1cc(-c2[nH]nc(C(=O)N3CCOCC3)c2C(C)C)cn2ncnc12 [Example 30] | 4.37 nM | 2.07 nM | 14800 nM
16 | Cc1cc(-c2[nH]nc(C(=O)N(C)C)c2C(C)C)cn2ncnc12 [Example 31] | 3.98 nM | 3.02 nM | > 50000 nM
17 | Cc1cc(-c2[nH]nc(C(=O)NC3CCC(O)CC3)c2C(C)C)cn2ncnc12 (stereo not drawn) [Example 32] | 3.41 nM | 15.9 nM | > 50000 nM
18 | Cc1c(-c2[nH]nc(C(=O)NC3CCN(C(C)C)CC3)c2C(C)C)cn2ncnc2c1C [Example 33] | 3.86 nM | 1.52 nM | > 50000 nM
19 | COc1ccc(-c2[nH]nc(C(=O)NC3CCN(C(C)C)CC3)c2C(C)C)cc1OC [Example 34] | 4.44 nM | 4.94 nM | > 50000 nM
20 | CC(C)c1c(C(=O)NC2CCN(C(C)C)CC2)n[nH]c1-c1ccnc2[nH]ncc12 [Example 35] | 2.77 nM | 0.79 nM | 4350 nM
21 | Cc1cc(-c2[nH]nc(C(=O)NC3CCN(C(C)C)CC3)c2C(C)C)cc(C)n1 [Example 36] | 1300 nM | 1540 nM | 25200 nM
22 | Cc1cc(-c2[nH]nc(C(=O)NC3CCN(C(C)C)CC3)c2C(C)C)cn2ccnc12 [Example 37] | 12.1 nM | 27 nM | 27900 nM
23 | Cc1cc(-c2[nH]nc(C(=O)NC3CCN(C(C)C)CC3)c2C(C)C)ccn1 [Example 38] | 7.93 nM | 4.43 nM | 2280 nM
24 | Cc1cc(-c2[nH]nc(C(=O)NC3CCN(C(C)C)CC3)c2C(C)C)cn(C)c1=O [Example 39] | 8.31 nM | 25.5 nM | 3560 nM
25 | CC(C)c1c(C(=O)NC2CCN(C(C)C)CC2)n[nH]c1-c1ccc(C#N)c2ncccc12 [Example 40] | 29.9 nM | 31.1 nM | 18900 nM
